Assay results from patent US10392383B2, “3-(1H-benzo[d]imidazol-2-yl)-1H-pyrazolo[4,3-b]pyridines and therapeutic uses thereof” (Samumed, LLC, priority 2015, dated 2019).

How the values were obtained:
[1] = test system: IL-6 (THP-1 cells); experiment: IL-6 inhibition in LPS-stimulated THP-1 monocytes (HTRF); type: cell-based; conditions: Homo sapiens, IL-6 HTRF; for EC50: 500 ng/mL LPS, Table 6; for inhibition at 10 µM: LPS, Table 6, read-out: percent inhibition at 10 μM (given in parentheses for EC50 >10 μM)
In short: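 THP-1 cells in 1% FBS pre-incubated 2 h with compound (10-point 1:3 series from 10 μM, 0.1% DMSO), then stimulated with 500 ng/mL LPS for 22 h at 37 °C. IL-6 measured by HTRF 665/620 ratio, normalized to DMSO; EC50 by four-parameter fit, or % inhibition at 10 μM when EC50 >10 μM.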

[2] = test system: Wnt activity (Sp5-Luc reporter, Wnt-responsive promoter) in SW480 colon carcinoma cells; experiment: Wnt activity screening assay: Sp5-Luc reporter gene assay in SW480 cells; type: cell-based; conditions: Homo sapiens, overnight incubation, 10-point curve starting from 10 μM
In short: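 First, hygromycin-selected SW480 Sp5-Luc reporter cells are seeded in medium with 1% fetal bovine serum and exposed overnight to compound (up to 10 μM, 0.1% DMSO). Next, luciferase signal is read by luminescence. Finally, EC50 is fitted, or percent inhibition at 10 μM is reported above 10 μM.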

| EC50 [1] | EC50 [2] | Structure (SMILES) | inhibition at 10 µM [1] |
| --- | --- | --- | --- |
| 8.75 µM | 1.49 µM | CN(C)CCNc1cc(F)cc(-c2cccc3[nH]c(-c4n[nH]c5ccc(-c6ccccn6)nc45)nc23)c1 [Compound 476, N^1-(3-Fluoro-5-(2-(5-(pyridin-2-yl)-1H-pyrazolo[4,3-b]pyridin-3-yl)-1H-benzo[d]imidazol-4-yl)phenyl)-N^2,N^2-dimethylethane-1,2diamine] |  |
| > 10 µM | 3.77 µM | c1csc(-c2cccc3[nH]c(-c4n[nH]c5ccc(-c6ccncc6)nc45)nc23)c1 [Compound 354, 5-(Pyridin-4-yl)-3-(4-(thiophen-2-yl)-1H-benzo[d]imidazol-2-yl)-1H-pyrazolo[4,3-b]pyridine] | 20.4% |
| 5.33 µM | 2.76 µM | c1ccc(CNCc2cncc(-c3ccc4[nH]nc(-c5nc6c(-c7ccsc7)cccc6[nH]5)c4n3)c2)cc1 [Compound 304, N-Benzyl-1-(5-(3-(4-(thiophen-3-yl)-1H-benzo[d]imidazol-2-yl)-1H-pyrazolo[4,3-b]pyridin-5-yl)pyridin-3-yl)methanamine] |  |
| 9.7 µM | 6.55 µM | Oc1cncc(-c2ccc3[nH]nc(-c4nc5c(-c6cccc(F)c6)cccc5[nH]4)c3n2)c1 [Compound 517, 5-(3-(4-(3-Fluorophenyl)-1H-benzo[d]imidazol-2-yl)-1H-pyrazolo[4,3-b]pyridin-5-yl)pyridin-3-ol] |  |
| > 10 µM | 1.08 µM | O=C(Nc1cncc(-c2ccc3[nH]nc(-c4nc5c(-c6cccc(F)c6)cccc5[nH]4)c3n2)c1)C1CC1 [Compound 20, N-(5-(3-(4-(3-Fluorophenyl)-1H-benzo[d]imidazol-2-yl)-1H-pyrazolo[4,3-b]pyridin-5-yl)pyridin-3-yl)cyclopropanecarboxamide] | 0% |
| > 10 µM | 3.73 µM | O=C(Nc1cncc(-c2ccc3[nH]nc(-c4nc5c(N6CCCCC6)cccc5[nH]4)c3n2)c1)C1CC1 [Compound 188, N-(5-(3-(4-(Piperidin-1-yl)-1H-benzo[d]imidazol-2-yl)-1H-pyrazolo[4,3-b]pyridin-5-yl)pyridin-3-yl)cyclopropanecarboxamide] | 0% |
| > 10 µM | 3.77 µM | COc1cncc(-c2ccc3[nH]nc(-c4nc5c(N6CCCCC6)cccc5[nH]4)c3n2)c1 [Compound 612, 5-(5-Methoxypyridin-3-yl)-3-(4-(piperidin-1-yl)-1H-benzo[d]imidazol-2-yl)-1H-pyrazolo[4,3-b]pyridine] | 34.2% |
| > 10 µM | 1.04 µM | Cc1cn(-c2cccc3[nH]c(-c4n[nH]c5ccc(-c6cncc(NC(=O)CC(C)C)c6)nc45)nc23)cn1 [Compound 198, 3-Methyl-N-(5-(3-(4-(4-methyl-1H-imidazol-1-yl)-1H-benzo[d]imidazol-2-yl)-1H-pyrazolo[4,3-b]pyridin-5-yl)pyridin-3-yl)butanamide] | 30.8% |
| > 10 µM | 0.643 µM | CCCC(=O)Nc1cncc(-c2ccc3[nH]nc(-c4nc5c(-c6ccsc6)cccc5[nH]4)c3n2)c1 [Compound 297, N-(5-(3-(4-(Thiophen-3-yl)-1H-benzo[d]imidazol-2-yl)-1H-pyrazolo[4,3-b]pyridin-5-yl)pyridin-3-yl)butyramide] | 0% |
| > 10 µM | 1.36 µM | CCC(=O)Nc1cncc(-c2ccc3[nH]nc(-c4nc5c(-c6cccc(F)c6)cccc5[nH]4)c3n2)c1 [Compound 1, N-(5-(3-(4-(3-Fluorophenyl)-1H-benzo[d]imidazol-2-yl)-1H-pyrazolo[4,3-b]pyridin-5-yl)pyridin-3-yl)propionamide] | 49.2% |
| 6.77 µM | 1.55 µM | Oc1cncc(-c2ccc3[nH]nc(-c4nc5c(N6CCCCC6)cccc5[nH]4)c3n2)c1 [Compound 613, 5-(3-(4-(Piperidin-1-yl)-1H-benzo[d]imidazol-2-yl)-1H-pyrazolo[4,3-b]pyridin-5-yl)pyridin-3-ol] |  |
| 4.92 µM | 3.2 µM | Fc1cccc(-c2cccc3[nH]c(-c4n[nH]c5ccc(C6CCNCC6)nc45)nc23)c1 [Compound 505, 3-(4-(3-Fluorophenyl)-1H-benzo[d]imidazol-2-yl)-5-(piperidin-4-yl)-1H-pyrazolo[4,3-b]pyridine] |  |
| 0.0028 µM | 3.14 µM | c1cncc(-c2cccc3[nH]c(-c4n[nH]c5ccc(-c6cncc(OC7CCCCC7)c6)nc45)nc23)c1 [Compound 559, 5-(5-(Cyclohexyloxy)pyridin-3-yl)-3-(4-(pyridin-3-yl)-1H-benzo[d]imidazol-2-yl)-1H-pyrazolo[4,3-b]pyridine] |  |
| 1.37 µM | 0.637 µM | CN(C)Cc1cncc(-c2ccc3[nH]nc(-c4nc5c(-c6cccc(F)c6)cccc5[nH]4)c3n2)c1 [Compound 13, 1-(5-(3-(4-(3-Fluorophenyl)-1H-benzo[d]imidazol-2-yl)-1H-pyrazolo[4,3-b]pyridin-5-yl)pyridin-3-yl)-N,N-dimethylmethanamine] |  |
| 2.1 µM | 3.52 µM | CCC(=O)Nc1cncc(-c2ccc3[nH]nc(-c4nc5c(-c6cccs6)cccc5[nH]4)c3n2)c1 [Compound 337, N-(5-(3-(4-(Thiophen-2-yl)-1H-benzo[d]imidazol-2-yl)-1H-pyrazolo[4,3-b]pyridin-5-yl)pyridin-3-yl)propionamide] |  |
| 7.84 µM | 3.23 µM | NC1CN(c2cncc(-c3ccc4[nH]nc(-c5nc6c(-c7cccc(F)c7)cccc6[nH]5)c4n3)n2)C1 [Compound 510, 1-(6-(3-(4-(3-Fluorophenyl)-1H-benzo[d]imidazol-2-yl)-1H-pyrazolo[4,3-b]pyridin-5-yl)pyrazin-2-yl)azetidin-3-amine] |  |
| 0.628 µM | 3.37 µM | CCNCc1cncc(-c2ccc3[nH]nc(-c4nc5c(-c6cc(F)cc(NCCN(C)C)c6)cccc5[nH]4)c3n2)c1 [Compound 454, N^1-(3-(2-(5-(5-((Ethylamino)methyl)pyridin-3-yl)-1H-pyrazolo[4,3-b]pyridin-3-yl)-1H-benzo[d]imidazol-4-yl)-5-fluorophenyl)-N^2,N^2-dimethylethane-1,2-diamine] |  |
| 3.34 µM | 1.06 µM | CN1CCN(c2cccc3[nH]c(-c4n[nH]c5ccc(-c6cncc(OCc7ccccc7)c6)nc45)nc23)CC1 [Compound 646, 5-(5-(Benzyloxy)pyridin-3-yl)-3-(4-(4-methylpiperazin-1-yl)-1H-benzo[d]imidazol-2-yl)-1H-pyrazolo[4,3-b]pyridine] |  |
| > 10 µM | 3.13 µM | Cc1ccc(-c2cccc3[nH]c(-c4n[nH]c5ccc(-c6cncc(NC(=O)C(C)C)c6)nc45)nc23)s1 [Compound 401, N-(5-(3-(4-(5-Methylthiophen-2-yl)-1H-benzo[d]imidazol-2-yl)-1H-pyrazolo [4,3-b]pyridin-5-yl)pyridin-3-yl)isobutyramide] | 45.4% |
| 0.064 µM | 0.078 µM | Cc1ccc(-c2cccc3[nH]c(-c4n[nH]c5ccc(-c6cncc(N)c6)nc45)nc23)s1 [Compound 395, 5-(3-(4-(5-Methylthiophen-2-yl)-1H-benzo[d]imidazol-2-yl)-1H-pyrazolo [4,3-b]pyridin-5-yl)pyridin-3-amine] |  |
| 3.62 µM | 1.32 µM | Fc1cccc(-c2cccc3[nH]c(-c4n[nH]c5ccc(-c6ccncc6)nc45)nc23)c1 [Compound 18, 3-(4-(3-Fluorophenyl)-1H-benzo[d]imidazol-2-yl)-5-(pyridin-4-yl)-1H-pyrazolo[4,3-b]pyridine] |  |
